{
  "source": "patent US10317393B2",
  "about": "“Alkynyl sugar analogs for labeling and visualization of glycoconjugates in cells” (Academia Sinica, priority 2007, dated 2019)",
  "key": {"Jurkat cells [1]": {"test_system": "Jurkat cells", "assay": "Flow cytometry of cell surface labeling after click with biotin azide probe 6 and fluorescein-conjugated streptavidin", "type": "cell-based, human", "experimental": "In another exemplary implementation, a method for labeling fucosylated glycoconjugates at the cell surface is disclosed. In one aspect, Jurkat cells are grown in the presence of derivatized alkynyl Fuc 1. After treatment, cells are subjected to CuAAC (click chemistry) to couple biotinylated azido probe 6 with any alkynyl Fuc-bearing glycoconjugates, and stained with fluorescein-conjugated streptavidin.\nLabeling alkynyl Fuc-bearing cell surface glycoconjugates is illustrated in FIGS. 1A, 1B, 1C and 1D. FIGS. 1A, 1B, 1C and 1D show analysis of cells tagged with Fuc analogs analyzed by monitoring fluorescence intensity with flow cytometry after labeling with a biotin azide probe 6 and staining cells with fluorescein-conjugated streptavidin. […] Without being bound by theory, incorporation of the derivatized Fuc analogs into fucosylated glycoconjugates likely occurs via the Fuc salvage pathway.\nIt is now disclosed in one exemplary implementation of the disclosure that treating cells with derivatized alkynyl ManNAc 4 results in derivatized alkyne-bearing sialyl glycoconjugates. In one aspect of the method, cells are treated with 4 at various concentrations for one to 3 days. Modified sugar analogs and probes used in this disclosure are shown in Scheme 1. Tagging of the cell surface glycoconjugates by derivatized alkynyl ManNAc is illustrated in FIGS. 2A, 2B, 2C and 2D. FIGS. 2A, 2B, 2C and 2D show analysis of cells labeled with ManNAc analogs analyzed by monitoring fluorescence intensity with flow cytometry after clicking on the biotin azide probe 6 and staining cells with fluorescein-conjugated streptavidin. […] Compared with the MFI of controls, there was significant labeling on cells treated with derivatized alkynyl ManNAc 4, even at concentrations as low as 3 micromolar (15-fold increase). […] The optimal concentration of 4 for tagging sialyl glycoconjugates falls between 25 and 50 micromolar.\n(§1) Jurkat cells were cultivated (2×10^6/10 ml) in RPMI medium 1640 supplemented with 10% FCS and various concentrations of peracetylated alkynyl sugars 1, 2, or 4 or native sugars 3 or 5, for 1-3 days at 37° C. Cells were then harvested, washed with 0.1% FCS/PBS, and resuspended (10^6 cells) in 100 microliters of click reaction solution (0.1 mM biotin probe 6 or fluorogenic probe 7/0.1 mM Tris-thiazoleamine catalyst/0.1 mM CuSO4/0.5 mM sodium ascorbate, in PBS). The reaction was incubated at room temperature for 30 min, and then the cells were washed twice with 0.1% FCS/PBS. Cells treated with biotin probe 6 were subsequently stained with fluorescein-conjugated streptavidin (0.5 microgram per sample in 50 microliters of 1% FCS/PBS) for 30 min at 4° C., and washed three times with 1% FCS/PBS. Data were acquired by BD LSR II with FACSDiva software, and were analyzed by CellQuestPro software (BD Biosciences). Detection of fluorescent adduct with probe 7 was monitored with a 408 nm laser and a 440/40 bandpass filter for excitation and emission, respectively."}, "Jurkat cells [2]": {"test_system": "Jurkat cells", "assay": "Cell growth analysis after treatment with sugar analogs (cell numbers counted)", "type": "cell-based, human", "settings": "for toxicity (growth rate): 3 days", "experimental": "FIGS. 1A, 1B, 1C and 1D show analysis of cells labeled with Fuc analogs. […] Jurkat cells were grown in the presence of 200 micromolar each Fuc analog for 3 days before cell numbers were counted. The data represent the percentage of treated cells vs. untreated cells (n=4).\nIt is also disclosed how treatment with exogenous Fuc analog affects cell growth rate. […] In contrast, the addition of 200 micromolar azido Fuc 2 inhibits cell growth considerably, by 65% when compared with the untreated cells. […] Such toxicity may lead to global change in expression, therefore a nontoxic probe is preferable for accurate probing of glycoconjugate expression.\nas §1"}, "Jurkat cells [3]": {"test_system": "Jurkat cells", "assay": "Flow cytometry of cell surface labeling with fluorogenic coumarin probe 7", "type": "cell-based, human", "settings": "200 micromolar Fuc analogs or 25 micromolar ManNAc analogs, 3 days", "description": "FIGS. 3A and 3B show tagging of cell surface glycans by derivatized alkynyl sugar analogs and subsequent labeling with probe 3-azido-7-hydroxycoumarin 7. Shown is flow cytometry analysis of Jurkat cells tagged with 200 micromolar derivatized alkynyl Fuc 1 shown in FIG. 3A or 25 micromolar alkynyl-derivatized ManNAc 4 shown in FIG. 3B for 3 days. The fluorescence intensity was detected after labeling with a coumarin probe 7. Filled histogram, cells treated with control sugar analog 3 or 5; open histogram, cell treated with alkynyl-derivatized sugar 1 or 4.\nRecently, another click-activated azido-derivatized fluorescent probe, based on coumarin, was reported in the literature. In one aspect of the disclosure, the fluorogenic probe, 3-azido-7-hydroxycoumarin 7, is used as the coupling partner for alkynyl tags on labeled glycoconjugates.\nJurkat cells were cultivated (2×10^6/10 ml) in RPMI medium 1640 supplemented with 10% FCS and various concentrations of peracetylated alkynyl sugars 1, 2, or 4 or native sugars 3 or 5, for 1-3 days at 37° C. […] Data were acquired by BD LSR II with FACSDiva software, and were analyzed by CellQuestPro software (BD Biosciences). Detection of fluorescent adduct with probe 7 was monitored with a 408 nm laser and a 440/40 bandpass filter for excitation and emission, respectively."}, "cell extracts": {"test_system": "cell extracts", "assay": "Labeling and detection of glycoconjugates in cell extracts (SDS/PAGE, Western blot)", "type": "cell-based", "settings": "200 micromolar Fuc or 25 micromolar ManNAc analogs, 3 days", "description": "Because the herein disclosed labeling system enables the identification of cellular glycoconjugates, it can also serve well in glyco-proteomic applications aimed at discovering unknown glycosylated targets for diagnostic and therapeutic purposes. […] Soluble lysate fractions are labeled with biotin probe 6, fluorogenic probe 7, or a standard azido-derivatized rhodamine probe used in proteomics before separating proteins by SDS/PAGE. […] Positive fluorescent signal was also detected in alkynyl positive protein lysate when labeled with fluorogenic 3-azido-7-hydroxycoumarin 7 and rhodamine probes (FIG. 6B and FIG. 11). […] Moreover, further processing, including a streptavidin/avidin enrichment or gel slice purification, will allow for comparative identification by proteomic mass spectrometry techniques of unknown glycoconjugates expressed at different cell status, for instance, un-differentiated verses differentiated cells, or normal verses cancer cells.\nCells were seeded at 3×10^6/8 ml per 10-cm dish and treated with control and test sugars (200 micromolar Fuc 3 vs. alkynyl derivatized Fuc 1, or 25 micromolar ManNAc 5 vs. alkynyl derivatized ManNAc 2) in growth medium at 37° C. […] Signal was developed with SuperSignal Chemiluminescent Substrate and detected by exposure to x-ray film. […] Rhodamine gels were analyzed."}},
  "data": [
    {"smiles": "C#CCCC(=O)N[C@@H]1C(OC(C)=O)O[C@H](COC(C)=O)[C@@H](OC(C)=O)[C@@H]1OC(C)=O", "note": "(some centres unmarked) [alkynyl ManNAc 4, 1,3,4,6-tetra-O-acetyl-N-4-pentynoylmannosamine]", "values": [
      {"measurement": "increase of MFI compared with controls", "setting": "Jurkat cells [1]; 3 micromolar", "result": 15, "unit": "fold"},
      {"measurement": "dose dependency of glycan tagging", "setting": "Jurkat cells [1]; 3 days", "result": "Dose-dependent labeling"},
      {"measurement": "fluorescence intensity / cell surface signal compared with control sugar-treated cells", "setting": "Jurkat cells [1]; biotin probe 6/fluorescein-streptavidin", "result": "specific signal on the cell surface"},
      {"measurement": "toxicity (growth rate)", "setting": "Jurkat cells [2]; above 100 micromolar", "result": "more toxic"},
      {"measurement": "toxicity to cells (summary statement)", "setting": "Jurkat cells [2]; at levels required for efficient labeling", "result": "not toxic"},
      {"measurement": "toxicity (growth rate)", "setting": "Jurkat cells [2]; between 25 and 50 micromolar", "result": "little or no toxicity"},
      {"measurement": "fluorescent labeling after reacting with 3-azido-7-hydroxycoumarin probe", "setting": "Jurkat cells [3]", "result": "significant fluorescent labeling"},
      {"measurement": "labeling signal in proteins by Western blot or fluorescence", "setting": "cell extracts", "result": "specific biotin-labeling signals"}
    ]}
  ]
}
